system: CDK4/6 protein; assay: Western-blot determination of CDK4/6 protein degradation (DC50) in T-47D cells; type: cell-based, human; conditions: 24 h drug treatment, read-out: DC50(nM)/T-47D cell line

SMILES	DC50
Cc1nc2c(F)cc(-c3nc(Nc4ccc(CN5CCN(C(=O)CCCCCCCCCCSc6cccc7c6CN(C6CCC(=O)NC6=O)C7=O)CC5)cn4)ncc3F)cc2n1C(C)C (centres unmarked) [SIAIS262170, 3-(4-((11-(4-((6-((5-fluoro-4-(4-fluoro-1-isopropyl-2-methyl-1H-benzo[d]imidazol-6-yl)pyrimidin-2-yl)amino)pyridin-3-yl)methyl)piperazin-1-yl)-11-oxoundecyl)thio)-1-oxoisoindolin-2-yl)piperidine-2,6-dione]	50 nM
CN(C)C(=O)c1cc2cnc(Nc3ccc(N4CCN(C(=O)COCCOCCOCCOCCSc5cccc6c5C(=O)N(C5CCC(=O)NC5=O)C6=O)CC4)cn3)nc2n1C1CCCC1 (centres unmarked) [SIAIS219114, 7-cyclopentyl-2-((5-(4-(14-((2-(2,6-dioxopiperidin-3-yl)-1,3-dioxoisoindolin-4-yl)thio)-3,6,9,12-tetraoxatetradecanoyl)piperazin-1-yl)pyridin-2-yl)amino)-N,N-dimethyl-7H-pyrrolo[2,3-d]pyrimidine-6-carboxamide]	1 to 10 nM
CN(C)C(=O)c1cc2cnc(Nc3ccc(N4CCN(C(=O)CCCCSc5cccc6c5C(=O)N(C5CCC(=O)NC5=O)C6=O)CC4)cn3)nc2n1C1CCCC1 (centres unmarked) [SIAIS219103, 7-cyclopentyl-2-((5-(4-(5-((2-(2,6-dioxopiperidin-3-yl)-1,3-dioxoisoindolin-4-yl)thio)pentanoyl)piperazin-1-yl)pyridin-2-yl)amino)-N,N-dimethyl-7H-pyrrolo[2,3-d]pyrimidine-6-carboxamide]	< 1 nM
CC(=O)c1c(C)c2cnc(Nc3ccc(N4CCN(C(=O)CSc5cccc6c5CN(C5CCC(=O)NC5=O)C6=O)CC4)cn3)nc2n(C2CCCC2)c1=O (centres unmarked) [SIAIS219051, 3-(4-((2-(4-(6-((6-acetyl-8-cyclopentyl-5-methyl-7-oxo-7,8-dihydropyrido[2,3-d]pyrimidin-2-yl)amino)pyridin-3-yl)piperazin-1-yl)-2-oxoethyl)thio)-1-oxoisoindolin-2-yl)piperidine-2,6-dione]	< 1 nM
CC(=O)c1c(C)c2cnc(Nc3ccc(N4CCN(C(=O)CCCCCSc5cccc6c5CN(C5CCC(=O)NC5=O)C6=O)CC4)cn3)nc2n(C2CCCC2)c1=O (centres unmarked) [SIAIS219054, 3-(4-((6-(4-(6-((6-acetyl-8-cyclopentyl-5-methyl-7-oxo-7,8-dihydropyrido[2,3-d]pyrimidin-2-yl)amino)pyridin-3-yl)piperazin-1-yl)-6-oxohexyl)thio)-1-oxoisoindolin-2-yl)piperidine-2,6-dione]	< 1 nM
CN(C)C(=O)c1cc2cnc(Nc3ccc(N4CCN(C(=O)CCCSc5cccc6c5CN(C5CCC(=O)NC5=O)C6=O)CC4)cn3)nc2n1C1CCCC1 (centres unmarked) [SIAIS219088, 7-cyclopentyl-2-((5-(4-(4-((2-(2,6-dioxopiperidin-3-yl)-1-oxoisoindolin-4-yl)thio)butanoyl)piperazin-1-yl)pyridin-2-yl)amino)-N,N-dimethyl-7H-pyrrolo[2,3-d]pyrimidine-6-carboxamide]	1 to 10 nM
Cc1nc2c(F)cc(-c3nc(Nc4ccc(CN5CCN(C(=O)CCSc6cccc7c6CN(C6CCC(=O)NC6=O)C7=O)CC5)cn4)ncc3F)cc2n1C(C)C (centres unmarked) [SIAIS262165, 3-(4-((3-(4-((6-((5-fluoro-4-(4-fluoro-1-isopropyl-2-methyl-1H-benzo[d]imidazol-6-yl)pyrimidin-2-yl)amino)pyridin-3-yl)methyl)piperazin-1-yl)-3-oxopropyl)thio)-1-oxoisoindolin-2-yl)piperidine-2,6-dione]	5 nM
CC(=O)c1c(C)c2cnc(Nc3ccc(N4CCN(C(=O)CCSc5cccc6c5CN(C5CCC(=O)NC5=O)C6=O)CC4)cn3)nc2n(C2CCCC2)c1=O (centres unmarked) [SIAIS219052, 3-(4-((3-(4-(6-((6-acetyl-8-cyclopentyl-5-methyl-7-oxo-7,8-dihydropyrido[2,3-d]pyrimidin-2-yl)amino)pyridin-3-yl)piperazin-1-yl)-3-oxopropyl)thio)-1-oxoisoindolin-2-yl)piperidine-2,6-dione]	< 1 nM
CC(=O)c1c(C)c2cnc(Nc3ccc(N4CCN(C(=O)CCCSc5cccc6c5C(=O)N(C5CCC(=O)NC5=O)C6=O)CC4)cn3)nc2n(C2CCCC2)c1=O (centres unmarked) [SIAIS184087, 4-((4-(4-(6-((6-acetyl-8-cyclopentyl-5-methyl-7-oxo-7,8-dihydropyrido [2,3-d]pyrimidin-2-yl)amino)pyridin-3-yl)piperazin-1-yl)-4-oxobutyl)thio)-2-(2,6-dioxo Piperidin-3-yl)isoindoline-1,3-dione]	1 to 10 nM
Cc1nc2c(F)cc(-c3nc(Nc4ccc(CN5CCN(C(=O)CCCCCCSc6cccc7c6CN(C6CCC(=O)NC6=O)C7=O)CC5)cn4)ncc3F)cc2n1C(C)C (centres unmarked) [SIAIS262169, 3-(4-((7-(4-((6-((5-fluoro-4-(4-fluoro-1-isopropyl-2-methyl-1H-benzo[d]imidazol-6-yl)pyrimidin-2-yl)amino)pyridin-3-yl)methyl)piperazin-1-yl)-7-oxoheptyl)thio)-1-oxoisoindolin-2-yl)piperidine-2,6-dione]	5 nM
Cc1nc2c(F)cc(-c3nc(Nc4ccc(CN5CCN(C(=O)CSc6cccc7c6CN(C6CCC(=O)NC6=O)C7=O)CC5)cn4)ncc3F)cc2n1C(C)C (centres unmarked) [SIAIS262164, 3-(4-((2-(4-((6-((5-fluoro-4-(4-fluoro-1-isopropyl-2-methyl-1H-benzo[d]imidazol-6-yl)pyrimidin-2-yl)amino)pyridin-3-yl)methyl)piperazin-1-yl)-2-oxoethyl)thio)-1-oxoisoindolin-2-yl)piperidine-2,6-dione]	0.5 to 5 nM
CN(C)C(=O)c1cc2cnc(Nc3ccc(N4CCN(C(=O)CCSc5cccc6c5CN(C5CCC(=O)NC5=O)C6=O)CC4)cn3)nc2n1C1CCCC1 (centres unmarked) [SIAIS219087, 7-cyclopentyl-2-((5-(4-(3-((2-(2,6-dioxopiperidin-3-yl)-1-oxoisoindolin-4-yl)thio)propanoyl)piperazin-1-yl)pyridin-2-yl)amino)-N,N-dimethyl-7H-pyrrolo[2,3-d]pyrimidine-6-carboxamide]	< 1 nM
CC(=O)c1c(C)c2cnc(Nc3ccc(N4CCN(C(=O)CS(=O)(=O)c5cccc6c5C(=O)N(C5CCC(=O)NC5=O)C6=O)CC4)cn3)nc2n(C2CCCC2)c1=O (centres unmarked) [SIAIS151056, 4-((2-(4-(6-((6-acetyl-8-cyclopentyl-5-methyl-7-oxo-7,8-dihydropyrido[2,3-d]pyrimidin-2-yl)amino)pyridin-3-yl)piperazin-1-yl)-2-oxoethyl)sulfonyl)-2-(2,6-dioxopiperidin-3-yl)isoindoline-1,3-dione]	100 to 500 nM
CC(=O)c1c(C)c2cnc(Nc3ccc(N4CCN(C(=O)COCCOCCOCCOCCSc5cccc6c5C(=O)N(C5CCC(=O)NC5=O)C6=O)CC4)cn3)nc2n(C2CCCC2)c1=O (centres unmarked) [SIAIS219061, 4-((14-(4-(6-((6-acetyl-8-cyclopentyl-5-methyl-7-oxo-7,8-dihydropyrido[2,3-d]pyrimidin-2-yl)amino)pyridin-3-yl)piperazin-1-yl)-14-oxo-3,6,9,12-tetraoxatetradecyl)thio)-2-(2,6-dioxopiperidin-3-yl)isoindoline-1,3-dione]	1 to 10 nM
Cc1nc2c(F)cc(-c3nc(Nc4ccc(CN5CCN(C(=O)CCCCCSc6cccc7c6CN(C6CCC(=O)NC6=O)C7=O)CC5)cn4)ncc3F)cc2n1C(C)C (centres unmarked) [SIAIS262168, 3-(4-((6-(4-((6-((5-fluoro-4-(4-fluoro-1-isopropyl-2-methyl-1H-benzo[d]imidazol-6-yl)pyrimidin-2-yl)amino)pyridin-3-yl)methyl)piperazin-1-yl)-6-oxohexyl)thio)-1-oxoisoindolin-2-yl)piperidine-2,6-dione]	0.05 to 0.5 nM
Cc1nc2c(F)cc(-c3nc(Nc4ccc(CN5CCN(C(=O)CCCSc6cccc7c6CN(C6CCC(=O)NC6=O)C7=O)CC5)cn4)ncc3F)cc2n1C(C)C (centres unmarked) [SIAIS262166, 3-(4-((4-(4-((6-((5-fluoro-4-(4-fluoro-1-isopropyl-2-methyl-1H-benzo[d]imidazol-6-yl)pyrimidin-2-yl)amino)pyridin-3-yl)methyl)piperazin-1-yl)-4-oxobutyl)thio)-1-oxoisoindolin-2-yl)piperidine-2,6-dione]	0.5 to 5 nM
CN(C)C(=O)c1cc2cnc(Nc3ccc(N4CCN(C(=O)CSc5cccc6c5C(=O)N(C5CCC(=O)NC5=O)C6=O)CC4)cn3)nc2n1C1CCCC1 (centres unmarked) [SIAIS219100, 7-cyclopentyl-2-((5-(4-(2-((2-(2,6-dioxopiperidin-3-yl)-1,3-dioxoisoindolin-4-yl)thio)acetyl)piperazin-1-yl)pyridin-2-yl)amino)-N,N-dimethyl-7H-pyrrolo[2,3-d]pyrimidine-6-carboxamide]	< 0.04 nM
CN(C)C(=O)c1cc2cnc(Nc3ccc(N4CCN(C(=O)COCCOCCOCCSc5cccc6c5CN(C5CCC(=O)NC5=O)C6=O)CC4)cn3)nc2n1C1CCCC1 (centres unmarked) [SIAIS219108, 7-cyclopentyl-2-((5-(4-(2-(2-(2-(2-((2-(2,6-dioxopiperidin-3-yl)-1-oxoisoindolin-4-yl)thio)ethoxy)ethoxy)ethoxy)acetyl)piperazin-1-yl)pyridin-2-yl)amino)-N,N-dimethyl-7H-pyrrolo[2,3-d]pyrimidine-6-carboxamide]	0.04 to 0.2 nM
CN(C)C(=O)c1cc2cnc(Nc3ccc(N4CCN(C(=O)CCCCSc5cccc6c5CN(C5CCC(=O)NC5=O)C6=O)CC4)cn3)nc2n1C1CCCC1 (centres unmarked) [SIAIS219089, 7-cyclopentyl-2-((5-(4-(5-((2-(2,6-dioxopiperidin-3-yl)-1-oxoisoindolin-4-yl)thio)pentanoyl)piperazin-1-yl)pyridin-2-yl)amino)-N,N-dimethyl-7H-pyrrolo[2,3-d]pyrimidine-6-carboxamide]	1 to 10 nM
CN(C)C(=O)c1cc2cnc(Nc3ccc(N4CCN(C(=O)CCCCCSc5cccc6c5CN(C5CCC(=O)NC5=O)C6=O)CC4)cn3)nc2n1C1CCCC1 (centres unmarked) [SIAIS219090, 7-cyclopentyl-2-((5-(4-(6-((2-(2,6-dioxopiperidin-3-yl)-1-oxoisoindolin-4-yl)thio)hexanoyl)piperazin-1-yl)pyridin-2-yl)amino)-N,N-dimethyl-7H-pyrrolo[2,3-d]pyrimidine-6-carboxamide]	0.2 to 1 nM
